The results in this text go back to US20260234163A1, “NOVEL COMPOUNDS AND USES THEREOF” (ACELINK THERAPEUTICS, INC., priority 2023, published 2026).

For one series, the system named is Nrf2. In words: Nrf2 Cellular Assay (pGL4.37[luc2P/ARE/Hygro] luciferase reporter in HepG2 cells). It is filed as cell-based. Conditions: ARE luciferase, 6 hours compound treatment. On the procedure:
Example 2.2 Nrf2 Cellular Assay
• 1. pGL4.37[luc2P/ARE/Hygro] vector was diluted to 25 ng/μL in Opti-MEM. • 2. Lipofectamine 3000 was added to a 2:1 lipid:DNA. The mixture was mixed by pipetting and incubate at room temperature for 15 minutes. • 3. HepG2 cells were cultured in complete medium (DMEM+10% FBS). • 4. Trypsin was added to the cells, which were filtered via a cell strainer to remove cell cluster, the cells were then quantified and diluted to 2×10^5 cells/ml in complete medium. • 5. The cells and plasmid were mixed, seeded to 384-well plate 50 μL per well (50 ng DNA/well) and incubated for 24 hours in a 37° C., 5% CO2 incubator.
• 1. Medium was removed from cells and replaced with 36 μL of DMEM+10% FBS per well. • 2. Incubated overnight in a 37° C., 5% CO2 incubator.
• 1. Test compound was serially diluted tin DMSO, and further diluted with DMEM (contains 10% FBS) to 10× final concentration. • 2. 4 μL of the 10× compound was added to each well, the plate was shaken for 10 sec on a plate shaker and incubated for 6 hours in a 37° C., 5% CO2 incubator.
• 1. Plates were removed from the 37° C., 5% CO2 incubator and allowed to cool to room temperature for approximately 15 minutes. • 2. 40 μL of the Glo Luciferase Assay System detection reagents were added, and the plate was shaken for 3 min and luminescence was measured.
A general note: In a reporter assay the amount or activity of a reporter protein is the signal.

The next series deals with T1, Keap1-Nrf2 (Homo sapiens, UniProt Q14145).
T1 construct: purchased Sino Biological 11981-H20B
In words: Keap1-Nrf2 Binding Inhibitory Activity Assay (fluorescence polarization, Keap1_FL + FITC-Nrf2 peptide). Conditions: Keap1-FL, 60 min room temperature. On the procedure:
Example 2.1 Keap1-Nrf2 Binding Inhibitory Activity Assay
• PerkinElmer EnVision 2105 Multilabel Reader • PerkinElmer FITC FP dual emission Label 2100-8060 • LABCYTE Echo 650 • Corning 384-well microplate #4514 • Keap1_FL, Sino Biological, catalog 11981-H20B • FITC-Nrf2 peptide, GL Biochem, Lot No: p210427-XQ892761
• a) Reference titration • 1. Keap1-Nrf2 Assay Buffer was prepared: 10 mM Tris-HCl pH 7.4, 150 mM NaCl, 50 mM EDTA, 0.05% Tween20, 0.1 mg/ml BSA (freshly add before use). • 2. 2.04× Tracer working solution was prepared: 2.04 nM FITC-Nrf2 peptide in Assay Buffer from 1 μM DMSO stock. • 3. 2× Protein working solution was prepared: 25 nM Keap1-FL in Assay Buffer. • 4. 100× compound working solutions with DMSO were prepared. Starting from 100 μM, serial 3-fold dilutions (10 points) were made by the Echo on the 384-well LDV microplate, then 200 nL of compounds, in duplicated wells, were transferred to a Corning 4514 plate. • 5. 9.8 μL per well of the Tracer working solution was added into the Corning 4514 plate. • 6. 10 μL per well of the Protein working solution was added into the Corning 4514 plate, except for the first two columns where Dilution Buffer were added to serve as “positive control”. • 7. The plate was incubated at room temperature for 60 min. • b) Read data on an EnVision with the following setting: Excitation Light (%): 84; Measurement Height: 9.4; G-Factor: 1; Detector Gain 1:220; Detector Gain 2: 220; Flash Number: 50.
All the Test Compounds were considered as having Keap1-Nrf2 binding inhibitory activity.

Molecules are shown by their SMILES. Like-named read-outs stand apart in the source and are kept apart here.

In turn, `Cc1c2ccc3c1nnn3CCOCCN1CCN(CC1)C(=O)c1ccc3ccc(cc3c1)C2CC(=O)OC(C)(C)C` (centres unmarked) displayed a ring closure, isolated yield (from Cc1c(C(CC(=O)OC(C)(C)C)c2ccc3ccc(C(=O)O)cc3c2)ccc2c1nnn2CCOCCN1CCNCC1, amide bond, 21-membered ring, HATU/DIEA, DMF, 72.0 mM, 25.0 °C, 19.0 h) of 19.5%.

Regarding `O=C(O)CC1c2ccc3c(c2)CN(CC3)C(=O)N2CCC(CCCCCn3nnc4cc1cnc43)CC2` (single isomer, unassigned) [Compound 53], the EC50 – broadly, the concentration that produces a half-maximal response – with Nrf2 (Homo sapiens, HepG2, 6 h) fell in the range of 10 to 30 µM. For the same compound, the IC50 (in general, the point on the concentration scale where inhibition reaches its midpoint) at Keap1-Nrf2 was at most 100 nM.

Regarding `O=C(O)CC1c2ccc3c(c2)CN(CC3)C(=O)C2CCC(CCCCn3nnc4cc1cnc43)CC2` (centres unmarked) [Compound 56, 2-(4-oxo-31,32,33,34-tetrahydro-13H-3(7,2)-isoquinolina-1(6,3)-[1,2,3]triazolo[4,5-b]pyridina-5(1,4)-cyclohexanacyclononaphane-2-yl)acetic acid], in the series with Nrf2 (Homo sapiens, HepG2, 6 h), the EC50 was in the range of 10 to 30 µM. For the same compound, at Keap1-Nrf2, the IC50 is at most 100 nM.

In turn, `O=C(O)CC1c2ccc3c(c2)CN(CC3)C(=O)C2CCC(CCCCCn3nnc4cc1cnc43)CC2` (centres unmarked) [Compound 55, 2-(4-oxo-31,32,33,34-tetrahydro-13H-3(7,2)-isoquinolina-1(6,3)-[1,2,3]triazolo[4,5-b]pyridina-5(1,4)-cyclohexanacyclodecaphane-2-yl)acetic acid] displayed an EC50 in the series on Nrf2 (Homo sapiens, HepG2, 6 h) of at most 10 µM. At Keap1-Nrf2, the IC50 was at most 100 nM.

`Cc1c2ccc3c1nnn3CCOCCN1CCC(CC1)C(=O)N1CCc3ccc(cc3C1)C2CC(=O)O` (centres unmarked) [Compound 3, 2-(carboxymethyl)-1^4-methyl-4-oxo-3^1,3^2,3^3,3^4-tetrahydro-1^1H-8-oxa-3(7,2)-isoquinolina-1(5,1)-benzo[d][1,2,3]triazola-5(4,1)-piperidin-1-iumacyclodecaphan-5^1-ium chloride]: in the series with Nrf2 (Homo sapiens, HepG2, 6 h), the EC50 is over 30 µM. For the same compound, at Keap1-Nrf2, the IC50 was in the range of 1000 to 10000 nM.

With `Cc1c2ccc3c1nnn3CCCCCN1CCN(CC1)C(=O)N1CCc3ccc(cc3C1)C2CC(=O)O` (centres unmarked) [Compound 5, 2-(carboxymethyl)-1^4-methyl-4-oxo-3^1,3^2,3^3,3^4-tetrahydro-1^1H-3(7,2)-isoquinolina-1(5,1)-benzo[d][1,2,3]triazola-5(4,1)-piperazin-1-iumacyclodecaphan-5^1-ium chloride], in the series with Nrf2 (Homo sapiens, HepG2, 6 h), the EC50 is over 30 µM. Moreover, the IC50 at Keap1-Nrf2 lay within 100 to 1000 nM.

For `O=C(CC1c2ccc3c(c2)CN(CC3)C(=O)N2CCC(C=CCCCn3nnc4c(Cl)c1ccc43)CC2)OCc1ccccc1` (centres unmarked), the ring closure, isolated yield (from C=CCCCn1nnc2c(Cl)c(C(CC(=O)OCc3ccccc3)c3ccc4c(c3)CN(C(=O)N3CCC(C=C)CC3)CC4)ccc21, rcm bond, 21-membered ring, Grubbs II, DCM, 53.3 mM, 19.0 h) was 13.3%.

On to `Cc1c2ccc3c1nnn3CCCCCC1CCN(CC1)C(=O)N1CCc3ccc(cc3C1)C2CC(=O)O` (centres unmarked) [Compound 14, 2-(1^4-methyl-4-oxo-3^1,3^2,3^3,3^4-tetrahydro-1^1H-3(7,2)-isoquinolina-1(5,1)-benzo[d][1,2,3]triazola-5(1,4)-piperidinacyclodecaphane-2-yl)acetic acid], for which, in the series on Nrf2 (Homo sapiens, HepG2, 6 h), the EC50 is at most 10 µM. The IC50 on Keap1-Nrf2 was at most 100 nM.

Turning to `Cc1cc2cc3c1CCN(C3)C(=O)c1ccc(cc1)COCCCn1nnc3c(C)c(ccc31)C2CC(=O)O` (centres unmarked) [Compound 4, 2-(1^4,3^5-dimethyl-4-oxo-3^1,3^2,3^3,3^4-tetrahydro-1^1H-7-oxa-3(7,2)-isoquinolina-1(5,1)-benzo[d][1,2,3]triazola-5(1,4)-benzenacyclodecaphane-2-yl)acetic acid], the EC50 in the series on Nrf2 (Homo sapiens, HepG2, 6 h) was at most 10 µM. For the same compound, the IC50 on Keap1-Nrf2 was at most 100 nM.

For the compound `Cc1c2ccc3c1nnn3CCOCCN1CCN(CC1)C(=O)c1ccc3ccc(cc3c1)C2CC(=O)O` (centres unmarked) [Compound 8, 2-(1^4-methyl-4-oxo-1^1H-8-oxa-1(5,1)-benzo[d][1,2,3]triazola-5(1,4)-piperazina-3(2,7)-naphthalenacyclodecaphane-2-yl)acetic acid], in the series with Nrf2 (Homo sapiens, HepG2, 6 h), the EC50 was over 30 µM. The IC50 on Keap1-Nrf2 lay in the range of 1000 to 10000 nM.

`Cc1c2ccc3c1nnn3CCCCCCCCN(C)C(=O)N1CCc3ccc(cc3C1)C2CC(=O)O` (centres unmarked) [Compound 40] yielded an EC50 in the series on Nrf2 (Homo sapiens, HepG2, 6 h) of 10 to 30 µM. The IC50 on Keap1-Nrf2 was at most 100 nM.

The compound `COC(=O)CC1c2ccc3c(nnn3CCOCCOC3CCN(CC3)C(=O)c3ccc4c(c3)CN1CC4)c2C` (centres unmarked) displayed a ring closure, isolated yield (from COC(=O)CC(c1ccc2c(nnn2CCOCCOC2CCNCC2)c1C)N1CCc2ccc(C(=O)O)cc2C1, amide bond, 22-membered ring, HATU/DIEA, DMF, 35.4 mM, 20.0 °C, 2.0 h) of 90.4%.

In the case of `Cc1c2ccc3c1nnn3C/C=C\COC1CCN(CC1)C(=O)N1CCc3ccc(cc3C1)C2CC(=O)O` (centres unmarked) [Compound 11, (Z)-2-(1^4-methyl-4-oxo-3^1,3^2,3^3,3^4-tetrahydro-1^1H-6-oxa-3(7,2)-isoquinolina-1(5,1)-benzo[d][1,2,3]triazola-5(1,4)-piperidinacyclodecaphan-8-en-2-yl)acetic acid], the EC50 in the series with Nrf2 (Homo sapiens, HepG2, 6 h) was at most 10 µM. The IC50 at Keap1-Nrf2 was at most 100 nM.

Compound `Cc1c2ccc3c1nnn3CCCCOC1CCN(CC1)C(=O)N1CCc3ccc(cc3C1)C2CC(=O)O` (centres unmarked) [Compound 10, 2-(1^4-methyl-4-oxo-3^1,3^2,3^3,3^4-tetrahydro-1^1H-6-oxa-3(7,2)-isoquinolina-1(5,1)-benzo[d][1,2,3]triazola-5(1,4)-piperidinacyclodecaphane-2-yl)acetic acid] yielded an EC50 in the series with Nrf2 (Homo sapiens, HepG2, 6 h) of at most 10 µM. Besides, the IC50 on Keap1-Nrf2 is at most 100 nM.

`Cc1c2ccc3c1nnn3CCCOCC1CCN(CC1)C(=O)N1CCc3ccc(cc3C1)C2CC(=O)O` (centres unmarked) [Compound 12, 2-(1^4-methyl-4-oxo-3^1,3^2,3^3,3^4-tetrahydro-1^1H-7-oxa-3(7,2)-isoquinolina-1(5,1)-benzo[d][1,2,3]triazola-5(1,4)-piperidinacyclodecaphane-2-yl)acetic acid] returned an EC50 in the series on Nrf2 (Homo sapiens, HepG2, 6 h) of at most 10 µM. For the same compound, the IC50 on Keap1-Nrf2 is at most 100 nM.

`Cc1ccc2cc1CN(C)C(=O)c1ccc(cc1)COCCCn1nnc3c(C)c(ccc31)C2CC(=O)O` (single isomer, unassigned) [Compound 17, 2-(1^4,3^4,5-trimethyl-6-oxo-1^1H-9-oxa-5-aza-1(5,1)-benzo[d][1,2,3]triazola-3(1,3), 7(1,4)-dibenzenacyclododecaphane-2-yl)acetic acid] displayed an EC50 in the series on Nrf2 (Homo sapiens, HepG2, 6 h) of over 30 µM. Besides, the IC50 on Keap1-Nrf2 was in the range of 1000 to 10000 nM.

Compound `O=C(O)CC1c2ccc3c(c2)CN(CC3)C(=O)N2CCC(CCCCCn3nnc4cc1cnc43)CC2` (single isomer, unassigned) [Compound 54] came in with an EC50 in the series with Nrf2 of at most 10 µM. The IC50 at Keap1-Nrf2 was at most 100 nM.

Turning to `Cc1c2ccc3c1nnn3CCCOCc1ccc(cc1)C(=O)N(C)Cc1cccc(c1)C2CC(=O)O` (centres unmarked) [Compound 7, 2-(1^4,5-dimethyl-6-oxo-1^1H-9-oxa-5-aza-1(5,1)-benzo[d][1,2,3]triazola-3(1,3), 7(1,4)-dibenzenacyclododecaphane-2-yl)acetic acid], the EC50 in the series on Nrf2 (Homo sapiens, HepG2, 6 h) was 10 to 30 µM. On Keap1-Nrf2, the IC50 is at most 100 nM.

The compound `Cc1c2ccc3c1nnn3CCCCC1CCC(CC1)C(=O)N1CCc3ccc(cc3C1)C2CC(=O)O` (centres unmarked) [Compound 34] showed an EC50 in the series with Nrf2 (Homo sapiens, HepG2, 6 h) of at most 10 µM. Moreover, on Keap1-Nrf2, the IC50 was at most 100 nM.

`Cc1c2ccc3c1nnn3CCCCCN1CCC(CC1)C(=O)N1CCc3ccc(cc3C1)C2CC(=O)O` (centres unmarked) [Compound 2, 2-(carboxymethyl)-1^4-methyl-4-oxo-3^1,3^2,3^3,3^4-tetrahydro-1^1H-3(7,2)-isoquinolina-1(5,1)-benzo[d][1,2,3]triazola-5(4,1)-piperidin-1-iumacyclodecaphan-5^1-ium chloride]: the EC50 with Nrf2 (Homo sapiens, HepG2, 6 h) is over 30 µM. Also, the IC50 at Keap1-Nrf2 lay within 1000 to 10000 nM.

As for `Cc1c2ccc3c1nnn3CCCCCC1CCC(CC1)C(=O)N1CCc3ccc(cc3C1)C2CC(=O)O` (centres unmarked) [Compound 35], in the series with Nrf2 (Homo sapiens, HepG2, 6 h), the EC50 is at most 10 µM. The IC50 on Keap1-Nrf2 is at most 100 nM.

`Cc1c2ccc3c1nnn3CCCCCC1CCC(CC1)C(=O)N(C)Cc1cccc(c1)C2CC(=O)O` (centres unmarked) [Compound 37] returned an EC50 in the series on Nrf2 (Homo sapiens, HepG2, 6 h) of at most 10 µM. Also, at Keap1-Nrf2, the IC50 lay in the range of 100 to 1000 nM.
